Assay results published in patent publication US20100204152A1, “USE OF GLUTEN EXORPHIN C : AS A THERAPEUTIC AGENT” (priority 2007, published 2010).
Where no end group is shown, it is not given here.

Legend:
[1] = test system: hepatitis B virus (HBV) ayw strain in HepG2-2.2.15 cells; experiment: HBV experimental assay system (secreted HBV DNA, TaqMan PCR); type: cell-based; details: 10 micrograms per ml, six days, HBV DNA by TaqMan PCR
Source text: HepG2-2.2.15 is a stable cell line containing the hepatitis B virus (HBV) ayw strain genome (ATCC Cat. No. CRL-11997). Antiviral compounds blocking any late step of viral replication such as transcription, translation, pregenome encapsidation, reverse transcription, particle assembly and release can be identified and characterized using this cell line. In this assay, an active compound will reduce the production of secreted HBV from cells, measured by utilizing real time quantitative PCR (TaqMan) assay to directly and accurately measure HBV DNA copies.
HepG2-2.2.15 cells were plated in 96-well microtiter plates. After 16-24 hours the confluent monolayer of HepG2-2.2.15 cells was washed and the medium was replaced with complete medium containing test peptides—10 micrograms per ml—in duplicate. […] Six days following the initial administration of the peptides, the cell culture supernatants was collected, treated with pronase and DNAse and then used in a real-time quantitative TaqMan PCR assay. The PCR-amplified HBV DNA was detected in real-time by monitoring increases in fluorescence signals that result from the exonucleolytic degradation of a quenched fluorescence probe molecule that hybridizes to the amplified HBV DNA. […] Antiviral activity was calculated from the reduction in HBV DNA levels (% virus control). […]

RAW 264.7 cells = experiment: Phagocytosis assay; type: cell-based, mouse; details: 10 micrograms per ml, Fluorescein-labeled Escherichia coli, flow cytometry
spleen cells = experiment: Th1/Th2 cytokine profiling assay; type: cell-based, Balb/c mice; details: 10 micrograms per ml; Ovalbumin restimulation; 72 hours; supernatant
Source text: The Balb/c mice (originated in 1923, it is a popular strain and is used in many different research disciplines. Also classified as an inbred from the production of 20 or more successive brother-sister matings, the Balb/c mouse is albino and small in size) were immunized on Days 1, 15, and 29 with Ovalbumin (Ovalbumin is the main protein found in egg white, commonly used to stimulate an immunological reaction in test animals) in PBS (5 micrograms/injection). On day 50, spleens of the mice were harvested (3 weeks after last boost with Ovalbumin). Cells were cultured (2×10^5/well in triplicate) and incubated with culture medium or test peptides—10 micrograms per ml—for 30 min. Thereafter, additional Ovalbumin was added to the cells at 10 micrograms/ml for in vitro restimulation of the cells. 72 hours later, cell supernatants were harvested and assayed using the Becton Dickinson Mouse Th1/Th2 Cytokine CBA Kit. This kit can be used to measure Interleukin-2 (IL-2), Interleukin-4 (IL-4), Interleukin-5 (IL-5), Interferon-γ (IFN-γ), and Tumor Necrosis Factor-α (TNF-α) protein levels in a single sample. The kit performance has been optimized for analysis of physiologically relevant concentrations (pg/ml levels) of specific cytokine proteins in tissue culture supernatants and serum samples.

[2] = test system: LPS-induced TNF-alpha production in human macrophages; experiment: TNF alpha production assay; type: cell-based; details: 10 micrograms per ml; 30 min preincubation; lipopolysaccharide 200 ng/ml; overnight; ELISA
Source text: Not stimulated macrophages served as negative background control.

HUVEC = experiment: Endothelial tube formation assay; type: cell-based, human; details: 10 micrograms per ml, 20 hours, average tubule length
Source text: Positive control was vehicle only.

HCMV strain AD169 = experiment: HCMV plaque formation assay in MRC-5 cells; details: for inhibition of HCMV plaque formation as compared to the virus control: 10 micrograms per ml, 7-10 days
[3] = test system: Primary Human endothelial cells (HUVEC); experiment: Endothelial cell migration assay; type: cell-based; details: 10 micrograms per ml, 22 hours
Experimental: Thereafter, designated concentration of testing peptides—10 micrograms per ml—was added in duplicate wells.

Row | Molecule | inhibition of HBV replication as compared to the virus control infection [1] | effect on the phagocytic activity of murine macrophages (increase) (RAW 264.7 cells) | IFNγ spleen cells; TH1 response (% of control) (spleen cells) | IL-2 spleen cells (% of control) (spleen cells) | IL-4 spleen cells; TH2 response (% of control) (spleen cells) | IL-5 spleen cells; TH2 response (% of control) (spleen cells) | TNF-a spleen cells; TH1 response (% of control) (spleen cells) | inhibition of the LPS-induced TNF-alpha production in human macrophages [2] | inhibition of the tube formation of endothelial cells (HUVEC) [%] | inhibition of HCMV plaque formation as compared to the virus control (HCMV strain AD169) | antiviral activity of positive control compound (HCMV) (HCMV strain AD169; positive control) | inhibition of the migration of human endothelial cells [3] [%]
1 | Tyr-Pro-Ile-Ser-Leu-OH (YPISL-OH) [peptide 2] | 41.4% | no inhibitory or activating effect | 53.9 % of control | 124.0 % of control | 94.1 % of control | 86.6 % of control | 126.2 % of control | did not induced or inhibit | 100 | did not inhibit |  | 
2 | Nc1nc(O)c2ncn(COC(CO)CO)c2n1 [Ganciclovir, reference compound] |  |  |  |  |  |  |  |  |  |  | expected levels of antiviral activity | 
3 | AVPYPQR [peptide 1] | no effect | 22.9% | 52.4 % of control | 55.7 % of control | 0.0 % of control | 53.0 % of control | 86.6 % of control | 22.4% | 18 | did not inhibit |  | 35
